Measured values published in patent US11306117B2, “Whitening composition containing novel quercetin-based compound” (AMOREPACIFIC CORPORATION, priority 2017, dated 2022).

Tested on: healthy adult examinees
Assay: HRIPT (Human repeated insult patch tests), skin accumulated stimulus
Type: in vivo
Parameters: key to skin reactivity (ICDRG criteria): −: negative (no response); ±: doubtful or slight erythema, etc.; +: weak reaction (which is accompanied with no phlyctenule), erythema, papule; ++: severe reaction (which is accompanied with phylctenule), erythema, papule, phlyctenule; +++: strong reaction, bullae reaction
Details: for average reactivity: 9 patches, 15 examinees; for Number of examinees who exhibited ±, +, or ++ reactivity 1st: 1st patch; for Number of examinees who exhibited ±, +, or ++ reactivity 2nd: 2nd patch; for Number of examinees who exhibited ±, +, or ++ reactivity 3rd: 3rd patch; for Number of examinees who exhibited ±, +, or ++ reactivity 4th: 4th patch; for Number of examinees who exhibited ±, +, or ++ reactivity 5th: 5th patch; for Number of examinees who exhibited ±, +, or ++ reactivity 6th: 6th patch; for Number of examinees who exhibited ±, +, or ++ reactivity 7th: 7th patch; for Number of examinees who exhibited ±, +, or ++ reactivity 8th: 8th patch; for Number of examinees who exhibited ±, +, or ++ reactivity 9th: 9th patch
Description: HRIPT (Human repeated insult patch tests) was conducted in order to identify skin accumulated stimulus of quercetin3-O-[3-O″-(E)-p-coumaroyl][β-D-glucopyranosyl-(1→3)-O-α-L-rhamnopyranosyl-(1→6)-O-β-D-glucopyranoside] and quercetin3-O-[3-O″-(E)-p-coumaroyl][α-L-rhamnopyranosyl-(1→6)-O-β-D-glucopyranoside]and to calculate the concentration range that can be used in skin.
Specifically, 15 healthy adult examinees were randomly selected, and test compositions in which the compounds were respectively comprised in an amount of 0.5 wt. %, 1 wt. %, and 3 wt. % (the compositions for skin, comprising an emulsifying agent, a stabilizer, purified water, etc. in addition to the compounds) were dropped in the amount of 20 μl per chamber (IQ chamber, Epitest Ltd, Finland), and patched on the right site of the upper back of the examinees, and then, after 24 hours, the patch was replaced with a new patch. A total of 9 patches were conducted, three times a week for total 3 weeks, in such manner, the skin reactions before and after patch were examined every time, and the skin reactions until 48 hours after removing the final patch were observed, and the average reactivity was observed.
The skin reaction was determined according to the criteria of International Contact Dermatitis Research Group (ICDRG). In the above table, “New Material 31” refers to quercetin3-O-[3-O″-(E)-p-coumaroyl][β-D-glucopyranosyl-(1→3)-O-α-L-rhamnopyranosyl-(1→6)-O-β-D-glucopyranoside], and “New Material 32” refers to quercetin3-O-[3-O″-(E)-p-coumaroyl][α-L-rhamnopyranosyl-(1→6)-O-β-D-glucopyranoside].

C[C@@H]1O[C@@H](OC[C@H]2O[C@@H](Oc3c(-c4ccc(O)c(O)c4)oc4cc(O)cc(O)c4c3=O)[C@H](O)[C@@H](OC(=O)/C=C/c3ccc(O)cc3)[C@@H]2O)[C@H](O)[C@H](O)[C@H]1O [New Material 32, quercetin3-O-[3-O″-(E)-p-coumaroyl][α-L-rhamnopyranosyl-(1→6)-O-β-D-glucopyranoside]]
average reactivity (0.5 wt.% in test composition): 0 | skin reactivity (ICDRG criteria) (0.5 wt.%, 1 wt.% and 3 wt.%, 9 patches in 3 weeks): − | Number of examinees who exhibited ±, +, or ++ reactivity 1st (0.5 wt.%, line 1 of 3 (±)): 0 number | Number of examinees who exhibited ±, +, or ++ reactivity 1st (0.5 wt.%, line 2 of 3 (+)): 0 number | Number of examinees who exhibited ±, +, or ++ reactivity 1st (0.5 wt.%, line 3 of 3 (++)): 0 number | Number of examinees who exhibited ±, +, or ++ reactivity 2nd (0.5 wt.%, line 1 of 3 (±)): 0 number | Number of examinees who exhibited ±, +, or ++ reactivity 2nd (0.5 wt.%, line 2 of 3 (+)): 0 number | Number of examinees who exhibited ±, +, or ++ reactivity 2nd (0.5 wt.%, line 3 of 3 (++)): 0 number | Number of examinees who exhibited ±, +, or ++ reactivity 3rd (0.5 wt.%, line 1 of 3 (±)): 0 number | Number of examinees who exhibited ±, +, or ++ reactivity 3rd (0.5 wt.%, line 2 of 3 (+)): 0 number | Number of examinees who exhibited ±, +, or ++ reactivity 3rd (0.5 wt.%, line 3 of 3 (++)): 0 number | Number of examinees who exhibited ±, +, or ++ reactivity 4th (0.5 wt.%, line 1 of 3 (±)): 0 number | Number of examinees who exhibited ±, +, or ++ reactivity 4th (0.5 wt.%, line 2 of 3 (+)): 0 number | Number of examinees who exhibited ±, +, or ++ reactivity 4th (0.5 wt.%, line 3 of 3 (++)): 0 number | Number of examinees who exhibited ±, +, or ++ reactivity 5th (0.5 wt.%, line 1 of 3 (±)): 0 number | Number of examinees who exhibited ±, +, or ++ reactivity 5th (0.5 wt.%, line 2 of 3 (+)): 0 number | Number of examinees who exhibited ±, +, or ++ reactivity 5th (0.5 wt.%, line 3 of 3 (++)): 0 number | Number of examinees who exhibited ±, +, or ++ reactivity 6th (0.5 wt.%, line 1 of 3 (±)): 0 number | Number of examinees who exhibited ±, +, or ++ reactivity 6th (0.5 wt.%, line 2 of 3 (+)): 0 number | Number of examinees who exhibited ±, +, or ++ reactivity 6th (0.5 wt.%, line 3 of 3 (++)): 0 number | Number of examinees who exhibited ±, +, or ++ reactivity 7th (0.5 wt.%, line 1 of 3 (±)): 0 number | Number of examinees who exhibited ±, +, or ++ reactivity 7th (0.5 wt.%, line 2 of 3 (+)): 0 number | Number of examinees who exhibited ±, +, or ++ reactivity 7th (0.5 wt.%, line 3 of 3 (++)): 0 number | Number of examinees who exhibited ±, +, or ++ reactivity 8th (0.5 wt.%, line 1 of 3 (±)): 0 number | Number of examinees who exhibited ±, +, or ++ reactivity 8th (0.5 wt.%, line 2 of 3 (+)): 0 number | Number of examinees who exhibited ±, +, or ++ reactivity 8th (0.5 wt.%, line 3 of 3 (++)): 0 number | Number of examinees who exhibited ±, +, or ++ reactivity 9th (0.5 wt.%, line 1 of 3 (±)): 0 number | Number of examinees who exhibited ±, +, or ++ reactivity 9th (0.5 wt.%, line 2 of 3 (+)): 0 number | Number of examinees who exhibited ±, +, or ++ reactivity 9th (0.5 wt.%, line 3 of 3 (++)): 0 number | average reactivity (1 wt.% in test composition): 0 | Number of examinees who exhibited ±, +, or ++ reactivity 1st (1 wt.%, line 1 of 3 (±)): 0 number | Number of examinees who exhibited ±, +, or ++ reactivity 1st (1 wt.%, line 2 of 3 (+)): 0 number | Number of examinees who exhibited ±, +, or ++ reactivity 1st (1 wt.%, line 3 of 3 (++)): 0 number | Number of examinees who exhibited ±, +, or ++ reactivity 2nd (1 wt.%, line 1 of 3 (±)): 0 number | Number of examinees who exhibited ±, +, or ++ reactivity 2nd (1 wt.%, line 2 of 3 (+)): 0 number | Number of examinees who exhibited ±, +, or ++ reactivity 2nd (1 wt.%, line 3 of 3 (++)): 0 number | Number of examinees who exhibited ±, +, or ++ reactivity 3rd (1 wt.%, line 1 of 3 (±)): 0 number | Number of examinees who exhibited ±, +, or ++ reactivity 3rd (1 wt.%, line 2 of 3 (+)): 0 number | Number of examinees who exhibited ±, +, or ++ reactivity 3rd (1 wt.%, line 3 of 3 (++)): 0 number | Number of examinees who exhibited ±, +, or ++ reactivity 4th (1 wt.%, line 1 of 3 (±)): 0 number | Number of examinees who exhibited ±, +, or ++ reactivity 4th (1 wt.%, line 2 of 3 (+)): 0 number | Number of examinees who exhibited ±, +, or ++ reactivity 4th (1 wt.%, line 3 of 3 (++)): 0 number | Number of examinees who exhibited ±, +, or ++ reactivity 5th (1 wt.%, line 1 of 3 (±)): 0 number | Number of examinees who exhibited ±, +, or ++ reactivity 5th (1 wt.%, line 2 of 3 (+)): 0 number | Number of examinees who exhibited ±, +, or ++ reactivity 5th (1 wt.%, line 3 of 3 (++)): 0 number | Number of examinees who exhibited ±, +, or ++ reactivity 6th (1 wt.%, line 1 of 3 (±)): 0 number | Number of examinees who exhibited ±, +, or ++ reactivity 6th (1 wt.%, line 2 of 3 (+)): 0 number | Number of examinees who exhibited ±, +, or ++ reactivity 6th (1 wt.%, line 3 of 3 (++)): 0 number | Number of examinees who exhibited ±, +, or ++ reactivity 7th (1 wt.%, line 1 of 3 (±)): 0 number | Number of examinees who exhibited ±, +, or ++ reactivity 7th (1 wt.%, line 2 of 3 (+)): 0 number | Number of examinees who exhibited ±, +, or ++ reactivity 7th (1 wt.%, line 3 of 3 (++)): 0 number | Number of examinees who exhibited ±, +, or ++ reactivity 8th (1 wt.%, line 1 of 3 (±)): 0 number | Number of examinees who exhibited ±, +, or ++ reactivity 8th (1 wt.%, line 2 of 3 (+)): 0 number | Number of examinees who exhibited ±, +, or ++ reactivity 8th (1 wt.%, line 3 of 3 (++)): 0 number | Number of examinees who exhibited ±, +, or ++ reactivity 9th (1 wt.%, line 1 of 3 (±)): 0 number | Number of examinees who exhibited ±, +, or ++ reactivity 9th (1 wt.%, line 2 of 3 (+)): 0 number | Number of examinees who exhibited ±, +, or ++ reactivity 9th (1 wt.%, line 3 of 3 (++)): 0 number | average reactivity (3 wt.% in test composition): 0 | Number of examinees who exhibited ±, +, or ++ reactivity 1st (3 wt.%, line 1 of 3 (±)): 0 number | Number of examinees who exhibited ±, +, or ++ reactivity 1st (3 wt.%, line 2 of 3 (+)): 0 number | Number of examinees who exhibited ±, +, or ++ reactivity 1st (3 wt.%, line 3 of 3 (++)): 0 number | Number of examinees who exhibited ±, +, or ++ reactivity 2nd (3 wt.%, line 1 of 3 (±)): 0 number | Number of examinees who exhibited ±, +, or ++ reactivity 2nd (3 wt.%, line 2 of 3 (+)): 0 number | Number of examinees who exhibited ±, +, or ++ reactivity 2nd (3 wt.%, line 3 of 3 (++)): 0 number | Number of examinees who exhibited ±, +, or ++ reactivity 3rd (3 wt.%, line 1 of 3 (±)): 0 number | Number of examinees who exhibited ±, +, or ++ reactivity 3rd (3 wt.%, line 2 of 3 (+)): 0 number | Number of examinees who exhibited ±, +, or ++ reactivity 3rd (3 wt.%, line 3 of 3 (++)): 0 number | Number of examinees who exhibited ±, +, or ++ reactivity 4th (3 wt.%, line 1 of 3 (±)): 0 number | Number of examinees who exhibited ±, +, or ++ reactivity 4th (3 wt.%, line 2 of 3 (+)): 0 number | Number of examinees who exhibited ±, +, or ++ reactivity 4th (3 wt.%, line 3 of 3 (++)): 0 number | Number of examinees who exhibited ±, +, or ++ reactivity 5th (3 wt.%, line 1 of 3 (±)): 0 number | Number of examinees who exhibited ±, +, or ++ reactivity 5th (3 wt.%, line 2 of 3 (+)): 0 number | Number of examinees who exhibited ±, +, or ++ reactivity 5th (3 wt.%, line 3 of 3 (++)): 0 number | Number of examinees who exhibited ±, +, or ++ reactivity 6th (3 wt.%, line 1 of 3 (±)): 0 number | Number of examinees who exhibited ±, +, or ++ reactivity 6th (3 wt.%, line 2 of 3 (+)): 0 number | Number of examinees who exhibited ±, +, or ++ reactivity 6th (3 wt.%, line 3 of 3 (++)): 0 number | Number of examinees who exhibited ±, +, or ++ reactivity 7th (3 wt.%, line 1 of 3 (±)): 0 number | Number of examinees who exhibited ±, +, or ++ reactivity 7th (3 wt.%, line 2 of 3 (+)): 0 number | Number of examinees who exhibited ±, +, or ++ reactivity 7th (3 wt.%, line 3 of 3 (++)): 0 number | Number of examinees who exhibited ±, +, or ++ reactivity 8th (3 wt.%, line 1 of 3 (±)): 0 number | Number of examinees who exhibited ±, +, or ++ reactivity 8th (3 wt.%, line 2 of 3 (+)): 0 number | Number of examinees who exhibited ±, +, or ++ reactivity 8th (3 wt.%, line 3 of 3 (++)): 0 number | Number of examinees who exhibited ±, +, or ++ reactivity 9th (3 wt.%, line 1 of 3 (±)): 0 number | Number of examinees who exhibited ±, +, or ++ reactivity 9th (3 wt.%, line 2 of 3 (+)): 0 number | Number of examinees who exhibited ±, +, or ++ reactivity 9th (3 wt.%, line 3 of 3 (++)): 0 number
